Measured values: US4287206A, “Halogen derivatives of 8-hydroxycarboxylic acids; the processes for their preparation and medicaments in which they are present” (priority 1978, dated 1981)
Read-outs that look alike come from different tables or passages of the source.

Legend:
mice [1] = assay: Sleep induced by pentobarbital in mice; format: in vivo; conditions: pentobarbital 50 mg.kg^-1 i.p.; 128 mg/kg oral
Method: (b) Absence of modification of the effects of pentobarbital
At time 0, the mice receive, by intraperitoneal or oral administration, distilled water or the medicament according to the invention, obtained in accordance with Example I. After 30 minutes, they receive pentobarbital (50 mg.kg^-1) by intraperitoneal administration.

mice [2] = assay: Motor activity in mice (activity meters with photoelectric cells); format: in vivo
Method: The motor activity was determined with the aid of activity meters having photoelectric cells (Boissier and Simon, Arch. int. Pharmacodyn. 1965, 158, 212-221). A minimum of 10 animals was always used per batch.
The mice are placed in the activity meter just after the oral or intraperitoneal administration of the product acccording to the invention, obtained in accordance with Example I. The motor activity is measured as from the introduction into the activity meter up to the 60th minute. The counters are read after 30 minutes, then reset to 0 and read every 10 minutes for 30 minutes.

[3] = Determination of the acute toxicity to mice (BEHRENS and KARBER); conditions: mouse, in vivo
Method: All the experiments reported below were carried out on male rats having a weight of between 170 and 220 g (Wistar AF strain) and male mice having a weight of between 18 and 23 g (Swiss NMRI strain), unless otherwise stated in the following text.
Determination of the acute toxicity to mice
Method used: BEHRENS and KARBER

## CC1CC(c2ccc(Cl)cc2)C(c2ccccc2)C(=O)O1 (stereo not drawn) [Example I, trans-4-(4'-chlorophenyl)-6-methyl-3-phenyl-3,4,5,6-tetrahydropyrone-2]
Mice [1]
  Time in minutes of sleep: 38 ± 7 min
Mice [2]; Table Ia, 1 mg/kg intraperitoneal, 30 + 10 min
  Number of rays passed through by mice: 76
Mice [2]; Table Ia, 1 mg/kg intraperitoneal, 30 + 20 min
  Number of rays passed through by mice: 163
Mice [2]; Table Ia, 1 mg/kg intraperitoneal, 30 + 30 min
  Number of rays passed through by mice: 235
Mice [2]; Table Ia, 1 mg/kg intraperitoneal, 30 min
  Number of rays passed through by mice: 400
Mice [2]; Table Ia, 2 mg/kg intraperitoneal, 30 + 10 min
  Number of rays passed through by mice: 114
Mice [2]; Table Ia, 2 mg/kg intraperitoneal, 30 + 20 min
  Number of rays passed through by mice: 231
Mice [2]; Table Ia, 2 mg/kg intraperitoneal, 30 + 30 min
  Number of rays passed through by mice: 331
Mice [2]; Table Ia, 2 mg/kg intraperitoneal, 30 min
  Number of rays passed through by mice: 474
Mice [2]; Table Ia, 4 mg/kg intraperitoneal, 30 + 10 min
  Number of rays passed through by mice: 129
Mice [2]; Table Ia, 4 mg/kg intraperitoneal, 30 + 20 min
  Number of rays passed through by mice: 269
Mice [2]; Table Ia, 4 mg/kg intraperitoneal, 30 + 30 min
  Number of rays passed through by mice: 322
Mice [2]; Table Ia, 4 mg/kg intraperitoneal, 30 min
  Number of rays passed through by mice: 529
Mice [2]; Table Ia, 4 mg/kg oral, 30 + 10 min
  Number of rays passed through by mice: 139
Mice [2]; Table Ia, 4 mg/kg oral, 30 + 20 min
  Number of rays passed through by mice: 257
Mice [2]; Table Ia, 4 mg/kg oral, 30 + 30 min
  Number of rays passed through by mice: 386
Mice [2]; Table Ia, 4 mg/kg oral, 30 min
  Number of rays passed through by mice: 462
Mice [2]; Table Ia, 8 mg/kg intraperitoneal, 30 + 10 min
  Number of rays passed through by mice: 147
Mice [2]; Table Ia, 8 mg/kg intraperitoneal, 30 + 20 min
  Number of rays passed through by mice: 309
Mice [2]; Table Ia, 8 mg/kg intraperitoneal, 30 + 30 min
  Number of rays passed through by mice: 467
Mice [2]; Table Ia, 8 mg/kg intraperitoneal, 30 min
  Number of rays passed through by mice: 659
Mice [2]; Table Ia, 8 mg/kg oral, 30 + 10 min
  Number of rays passed through by mice: 157
Mice [2]; Table Ia, 8 mg/kg oral, 30 + 20 min
  Number of rays passed through by mice: 314
Mice [2]; Table Ia, 8 mg/kg oral, 30 + 30 min
  Number of rays passed through by mice: 461
Mice [2]; Table Ia, 8 mg/kg oral, 30 min
  Number of rays passed through by mice: 478
Mice [2]; Table Ia, 16 mg/kg intraperitoneal, 30 + 10 min
  Number of rays passed through by mice: 176
Mice [2]; Table Ia, 16 mg/kg intraperitoneal, 30 + 20 min
  Number of rays passed through by mice: 336
Mice [2]; Table Ia, 16 mg/kg intraperitoneal, 30 + 30 min
  Number of rays passed through by mice: 465
Mice [2]; Table Ia, 16 mg/kg intraperitoneal, 30 min
  Number of rays passed through by mice: 763
Mice [2]; Table Ia, 16 mg/kg oral, 30 + 10 min
  Number of rays passed through by mice: 232
Mice [2]; Table Ia, 16 mg/kg oral, 30 + 20 min
  Number of rays passed through by mice: 428
Mice [2]; Table Ia, 16 mg/kg oral, 30 + 30 min
  Number of rays passed through by mice: 636
Mice [2]; Table Ia, 16 mg/kg oral, 30 min
  Number of rays passed through by mice: 629
Mice [2]; Table Ia, 32 mg/kg intraperitoneal, 30 + 10 min
  Number of rays passed through by mice: 187
Mice [2]; Table Ia, 32 mg/kg intraperitoneal, 30 + 20 min
  Number of rays passed through by mice: 422
Mice [2]; Table Ia, 32 mg/kg intraperitoneal, 30 + 30 min
  Number of rays passed through by mice: 594
Mice [2]; Table Ia, 32 mg/kg intraperitoneal, 30 min
  Number of rays passed through by mice: 891
Mice [2]; Table Ia, 32 mg/kg oral, 30 + 10 min
  Number of rays passed through by mice: 270
Mice [2]; Table Ia, 32 mg/kg oral, 30 + 20 min
  Number of rays passed through by mice: 587
Mice [2]; Table Ia, 32 mg/kg oral, 30 + 30 min
  Number of rays passed through by mice: 869
Mice [2]; Table Ia, 32 mg/kg oral, 30 min
  Number of rays passed through by mice: 783
Mice [2]; Table Ib, 2 mg/kg, route not given, 0 + 10 min
  Number of rays passed through by mice: 119
Mice [2]; Table Ib, 2 mg/kg, route not given, 30 + 20 min
  Number of rays passed through by mice: 221
Mice [2]; Table Ib, 2 mg/kg, route not given, 30 + 30 min
  Number of rays passed through by mice: 334
Mice [2]; Table Ib, 2 mg/kg, route not given, 30 min
  Number of rays passed through by mice: 417
Mice [2]; Table Ib, 4 mg/kg, route not given, 0 + 10 min
  Number of rays passed through by mice: 129
Mice [2]; Table Ib, 4 mg/kg, route not given, 30 + 20 min
  Number of rays passed through by mice: 259
Mice [2]; Table Ib, 4 mg/kg, route not given, 30 + 30 min
  Number of rays passed through by mice: 376
Mice [2]; Table Ib, 4 mg/kg, route not given, 30 min
  Number of rays passed through by mice: 472
Mice [2]; Table Ib, 8 mg/kg, route not given, 0 + 10 min
  Number of rays passed through by mice: 141
Mice [2]; Table Ib, 8 mg/kg, route not given, 30 + 20 min
  Number of rays passed through by mice: 286
Mice [2]; Table Ib, 8 mg/kg, route not given, 30 + 30 min
  Number of rays passed through by mice: 443
Mice [2]; Table Ib, 8 mg/kg, route not given, 30 min
  Number of rays passed through by mice: 452
Mice [2]; Table Ib, 16 mg/kg, route not given, 0 + 10 min
  Number of rays passed through by mice: 172
Mice [2]; Table Ib, 16 mg/kg, route not given, 30 + 20 min
  Number of rays passed through by mice: 359
Mice [2]; Table Ib, 16 mg/kg, route not given, 30 + 30 min
  Number of rays passed through by mice: 537
Mice [2]; Table Ib, 16 mg/kg, route not given, 30 min
  Number of rays passed through by mice: 565
Mice [2]; Table Ib, 32 mg/kg, route not given, 0 + 10 min
  Number of rays passed through by mice: 184
Mice [2]; Table Ib, 32 mg/kg, route not given, 30 + 20 min
  Number of rays passed through by mice: 376
Mice [2]; Table Ib, 32 mg/kg, route not given, 30 + 30 min
  Number of rays passed through by mice: 547
Mice [2]; Table Ib, 32 mg/kg, route not given, 30 min
  Number of rays passed through by mice: 560
[3]; ip, intraperitoneal, read-out: LD50 (intraperitoneal administration)
  LD50: 520 mg/kg
[3]; oral, read-out: LD50 (oral administration)
  LD50: 1050 mg/kg
